Test results as given in the Deep4Chem optical property database.

Assay: solvent given as SMILES

## CCOC(=O)c1ccc(C2=Cc3cc4ccccc4cc3P2(=O)c2ccccc2)cc1 (stereo unspecified)
In ClCCl
  emission maximum: 432 nm

## CC(C)(C)c1ccc2c(c1)c1cc(C(C)(C)C)ccc1n2-c1ccc(S(=O)(=O)c2ccc(-n3c4ccc(C(C)(C)C)cc4c4cc(C(C)(C)C)ccc43)cn2)nc1
In Cc1ccccc1
  emission maximum: 444.37 nm
In O=P(c1ccccc1)(c1ccccc1)c1ccc2sc3cccc(P(=O)(c4ccccc4)c4ccccc4)c3c2c1
  emission maximum: 444 nm

## F[B-]1(F)N2C=CN=CC2=[N+]2[N+]1=Cc1c(-c3ccccc3)cc(-c3cccs3)n1[B-]2(F)F
In ClCCl
  emission maximum: 566 nm

## c1ccc(C(=C(c2ccccc2)c2ccc(-c3ccc(-c4nc5c(-c6ccc(-c7ccc(C(=C(c8ccccc8)c8ccccc8)c8ccccc8)cc7)cc6)sc(-c6ccc(-c7ccc(C(=C(c8ccccc8)c8ccccc8)c8ccccc8)cc7)cc6)c5nc4-c4ccc(-c5ccc(C(=C(c6ccccc6)c6ccccc6)c6ccccc6)cc5)cc4)cc3)cc2)c2ccccc2)cc1
In Cc1ccccc1
  emission maximum: 637 nm
In ClCCl
  emission maximum: 647 nm

## c1ccc(-c2oc(-c3ccccc3)c3ccccc23)cc1
In C1CCCCC1
  emission maximum: 448 nm
In C1CCOC1
  emission maximum: 451 nm
In CC#N
  emission maximum: 452 nm
In CCO
  emission maximum: 451 nm
In CN(C)C=O
  emission maximum: 458 nm
In CS(C)=O
  emission maximum: 460 nm
In Cc1ccccc1
  emission maximum: 454 nm

## N#CC(C#N)=Cc1ccc2nc(C#Cc3ccc(N(c4ccccc4)c4ccccc4)cc3)sc2c1
In Cc1ccccc1
  emission maximum: 535 nm

## O=C1OC(c2ccccc2)=N/C1=C\c1ccccc1
In C1COCCO1
  emission maximum: 447 nm

## CCCCC(CC)CN1C(=O)c2cccc3c(C#Cc4ccc(N(c5ccccc5)c5ccc(C#Cc6ccc7c8c(cccc68)C(=O)N(CC(CC)CCCC)C7=O)cc5)cc4)ccc(c23)C1=O (stereo unspecified)
In C1CCCCC1
  emission maximum: 472 nm
In C1CCOC1
  emission maximum: 631 nm
In CC#N
  emission maximum: 549 nm
In Cc1ccccc1
  emission maximum: 514 nm
In ClC(Cl)Cl
  emission maximum: 587 nm

## CC1(C)c2ccccc2N(c2ccc(-c3ccc(C#N)nc3)cc2)c2ccccc21
In Cc1ccccc1
  emission maximum: 488 nm
In N#Cc1ccc2c(c1)c1ccccc1n2-c1cccc(-n2c3ccccc3c3ccccc32)c1
  emission maximum: 490 nm

## C[Si](C)(C)c1ccc(C#N)c2ccccc12
In C1CCCCC1
  emission maximum: 333 nm

## COC(=O)C(Cc1ccc2oc(-c3ccc(Nc4ccccc4)cc3)nc2c1)NC(=O)OC(C)(C)C (stereo unspecified)
In C1CCCCC1
  emission maximum: 382 nm
In C1CCOC1
  emission maximum: 419.01 nm
In C1COCCO1
  emission maximum: 410.51 nm
In CC1CCCO1
  emission maximum: 425.01 nm
In CC1COC(=O)O1
  emission maximum: 457.5 nm
In CC#N
  emission maximum: 452 nm
In CC(C)=O
  emission maximum: 439.5 nm
In CC(C)CC(C)(C)C
  emission maximum: 384 nm
In CC(C)CO
  emission maximum: 438 nm
In CC(C)O
  emission maximum: 440.51 nm
In CC(C)OC(C)C
  emission maximum: 426 nm
In CC(O)CO
  emission maximum: 438 nm
In CCC(C)CC
  emission maximum: 382.98 nm
In CCCCC
  emission maximum: 382 nm
In CCCCCC
  emission maximum: 383.49 nm
In CCCCCCCCC
  emission maximum: 384.5 nm
In CCCCCCCCCC
  emission maximum: 385 nm
In CCCCCCCO
  emission maximum: 434.5 nm
In CCCCCCO
  emission maximum: 429 nm
In CCCCCO
  emission maximum: 424 nm
In CCCCO
  emission maximum: 441.5 nm
In CCO
  emission maximum: 453.49 nm
In CCOC(C)=O
  emission maximum: 412 nm
In CCOCC
  emission maximum: 409.5 nm
In CN(C)C=O
  emission maximum: 447.51 nm
In CO
  emission maximum: 457 nm
In COCCOC
  emission maximum: 440.01 nm
In CS(C)=O
  emission maximum: 459.5 nm
In Cc1ccccc1
  emission maximum: 401.49 nm
In Cc1ccccc1C
  emission maximum: 401.49 nm
In ClC(Cl)Cl
  emission maximum: 420.01 nm
In ClCCl
  emission maximum: 415.51 nm
In NC=O
  emission maximum: 447.01 nm
In OC1CCCCC1
  emission maximum: 440.01 nm
In OCCO
  emission maximum: 443.01 nm
In c1ccccc1
  emission maximum: 398.5 nm

## c1ccc(/C(=C(\c2ccccc2)c2cc(-c3ccccc3)ccc2-c2ccccc2)c2cc(-c3ccccc3)ccc2-c2ccccc2)cc1
In C1CCOC1
  emission maximum: 489 nm

## COc1ccc(-c2ccc3c(c2)[Si](C)(C)c2cc(-c4ccc(OC)cc4)ccc2C=C3)cc1
In ClCCl
  emission maximum: 424 nm

## CCCCC1=C(CCCC)c2cccc3c2c(cc2nc4ccccc4nc23)O1
In ClCCl
  emission maximum: 567 nm

## CC(C)(C)c1cc2cc(N(c3ccccc3)c3ccccc3)c3cc(C(C)(C)C)cc4cc(N(c5ccccc5)c5ccccc5)c(c1)c2c43
In C1CCOC1
  emission maximum: 466.72 nm
In CC#N
  emission maximum: 497.22 nm
In CCCCCC
  emission maximum: 426 nm

## COc1cc2c(cc1F)c(=O)c1cc(F)c(OC)cc1n2Cc1ccccc1
In CCO
  emission maximum: 416 nm

## O=c1oc2cc3c(cc2cc1/C=C/c1ccccc1)OCO3
In CC#N
  emission maximum: 469 nm

## CCOC(=O)c1sc(SC)c2c(=O)[nH]nnc12
In C1CCOC1
  emission maximum: 465 nm
In CC#N
  emission maximum: 478 nm
In CCO
  emission maximum: 492 nm
In CN(C)C=O
  emission maximum: 478 nm
In CO
  emission maximum: 499 nm
In CS(C)=O
  emission maximum: 491 nm

## c1ccc(-c2ccc(-c3ccccc3)cc2)cc1
In C1CCOC1
  emission maximum: 340 nm
In C1COCCO1
  emission maximum: 342 nm
In CCO
  emission maximum: 375 nm
